# Laboratory results reported in ChEMBL document CHEMBL1135384, “Convenient synthesis and evaluation of enzyme inhibitory activity of several N-alkyl-, N-phenylalkyl, and cyclic isourea derivatives of 5a-carba-alpha-DL-fucopyranosylamine” (Bioorg Med Chem Lett, 2002).
# Molecular target: T1, Beta-galactosidase (Bos taurus, UniProt Q58D55)
# T1 sequence (Q58D55 whole entry): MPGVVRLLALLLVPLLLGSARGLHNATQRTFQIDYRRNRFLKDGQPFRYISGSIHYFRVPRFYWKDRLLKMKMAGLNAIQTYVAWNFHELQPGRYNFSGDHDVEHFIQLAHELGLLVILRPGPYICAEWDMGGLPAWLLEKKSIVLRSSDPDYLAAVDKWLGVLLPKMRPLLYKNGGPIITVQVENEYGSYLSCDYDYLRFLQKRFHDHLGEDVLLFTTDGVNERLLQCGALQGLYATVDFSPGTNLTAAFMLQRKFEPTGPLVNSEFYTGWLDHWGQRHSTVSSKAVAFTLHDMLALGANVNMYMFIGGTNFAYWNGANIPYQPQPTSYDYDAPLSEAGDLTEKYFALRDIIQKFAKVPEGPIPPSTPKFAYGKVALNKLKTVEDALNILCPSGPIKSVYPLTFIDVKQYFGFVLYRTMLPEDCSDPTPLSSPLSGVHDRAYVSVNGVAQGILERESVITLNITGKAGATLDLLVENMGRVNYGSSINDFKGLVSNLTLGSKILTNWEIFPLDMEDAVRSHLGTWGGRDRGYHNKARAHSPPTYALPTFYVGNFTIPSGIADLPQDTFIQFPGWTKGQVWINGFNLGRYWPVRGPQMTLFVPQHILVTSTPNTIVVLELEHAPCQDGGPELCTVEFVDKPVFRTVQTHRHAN
# Assay: Inhibitory activity against Beta-galactosidase in bovine liver was determined; call rule not given here
# Assay type: tissue-based
row,SMILES,IC50
1,CCCCCCCCNC1CC(C)[C@@H](O)[C@H](O)[C@H]1O (some centres undefined),37 µM

# Molecular target: T1, Beta-galactosidase
# Assay: Inhibitory activity against Beta-galactosidase in bovine liver was determined;NI means no inhibition
row,SMILES,IC50
1,CCNC1CC(C)[C@@H](O)[C@H](O)[C@H]1O (some centres undefined),Not Active
2,CC1CC2N=C(NCc3ccccc3)O[C@@H]2[C@@H](O)[C@@H]1O (some centres undefined),Not Active
3,CCCCNC1CC(C)[C@@H](O)[C@H](O)[C@H]1O (some centres undefined),Not Active
4,CC1CC2N=C(Nc3ccccc3)O[C@@H]2[C@@H](O)[C@@H]1O (some centres undefined),Not Active
5,CCCCNC1=NC2CC(C)[C@@H](O)[C@H](O)[C@H]2O1 (some centres undefined),Not Active
6,"C[C@@H]1C[C@@H](N)C(O)C(O)[C@@H]1O (single isomer, unassigned)",Not Active
7,"C[C@@H]1C[C@H](N)C(O)C(O)[C@@H]1O (single isomer, unassigned)",Not Active
8,C[C@@H]1NC[C@@H](O)[C@H](O)[C@@H]1O [DEOXYFUCONOJIRIMYCIN],Not Active
